This passage reports IC50 and inhibition results from patent US7501430B2 (ArQule, Inc., priority 2006, dated 2009).

The assay addresses T1, mutant B-RAF (Homo sapiens, UniProt P15056, V600E).
T1 construct: purchased Upstate (Charlottesville, Va.)
Put plainly: RAF biochemical assay (MEK-1 phosphorylation, anti-phospho MEK1/2 detection). The note with it: for IC50: read-out: Mutant B-RAF IC50; for inhibition at 10 µM: read-out: Mutant B-RAF % inhibition. An outline of the steps:
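Detection is by ELISA: after a 30 min room-temperature reaction, plate-captured GST-MEK-1 is probed with anti-phospho MEK1/2, then an AP-tagged secondary antibody with fluorescent Attophos read-out.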

T1 sequence (P15056 whole entry V600E): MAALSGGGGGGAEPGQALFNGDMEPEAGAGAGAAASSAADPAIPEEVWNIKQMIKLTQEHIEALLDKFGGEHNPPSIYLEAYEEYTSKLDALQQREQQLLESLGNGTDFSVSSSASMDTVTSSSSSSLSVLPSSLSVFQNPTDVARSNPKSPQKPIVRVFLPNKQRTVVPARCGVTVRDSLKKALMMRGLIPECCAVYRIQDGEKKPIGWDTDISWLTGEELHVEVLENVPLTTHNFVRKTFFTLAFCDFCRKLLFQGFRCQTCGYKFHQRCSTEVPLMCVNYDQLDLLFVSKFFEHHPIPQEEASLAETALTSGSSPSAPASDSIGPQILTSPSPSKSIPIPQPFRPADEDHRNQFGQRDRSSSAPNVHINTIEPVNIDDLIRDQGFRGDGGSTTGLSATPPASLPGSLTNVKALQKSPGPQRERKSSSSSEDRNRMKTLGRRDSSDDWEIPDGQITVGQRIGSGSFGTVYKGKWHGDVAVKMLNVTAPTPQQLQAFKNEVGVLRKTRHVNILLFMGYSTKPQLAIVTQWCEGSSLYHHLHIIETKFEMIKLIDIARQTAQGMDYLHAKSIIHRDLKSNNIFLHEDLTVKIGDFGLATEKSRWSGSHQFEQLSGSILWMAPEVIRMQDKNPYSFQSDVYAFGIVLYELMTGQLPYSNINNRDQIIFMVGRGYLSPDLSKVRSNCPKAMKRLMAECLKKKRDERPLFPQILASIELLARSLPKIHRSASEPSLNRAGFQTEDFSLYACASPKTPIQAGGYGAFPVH

`O=S(=O)(c1ccc(F)cc1)N1CCC(Nc2nccc(-c3c(-c4ccc5c(c4)OCCO5)nc4sccn34)n2)CC1` [Example 260, 4-[6-(2,3-dihydro-1,4-benzodioxin-6-yl)imidazo[2,1-b][1,3]thiazol-5-yl]-N-{1-[(4-fluorophenyl)sulfonyl]piperidin-4-yl}pyrimidin-2-amine]: the IC50 is 186 nM. On to `COc1ccccc1-c1nc2sccn2c1-c1ccnc(NC2CCNCC2)n1` [Example 261, 4-[6-(2-methoxyphenyl)imidazo[2,1-b][1,3]thiazol-5-yl]-N-piperidin-4-ylpyrimidin-2-amine], for which the IC50 is over 3000 nM. Still for that read-out and setting: to `COc1ccc(-c2nc3sccn3c2-c2ccnc(NC3CCN(S(=O)(=O)c4ccc(Cl)cc4)CC3)n2)cc1` [Example 262, N-{1-[(4-chlorophenyl)sulfonyl]piperidin-4-yl}-4-[6-(4-methoxyphenyl)imidazo[2,1-b][1,3]thiazol-5-yl]pyrimidin-2-amine] belongs over 3000 nM. Take `COc1cccc(-c2nc3sccn3c2-c2ccnc(NC3CCN(S(=O)(=O)c4ccc(Cl)cc4)CC3)n2)c1` [Example 263, N-{1-[(4-chlorophenyl)sulfonyl]piperidin-4-yl}-4-[6-(3-methoxyphenyl)imidazo[2,1-b][1,3]thiazol-5-yl]pyrimidin-2-amine]: the IC50 was over 5000 nM.

As to `O=S(=O)(c1ccc(Cl)cc1)N1CCC(Nc2nccc(-c3c(-c4ccc(O)cc4)nc4sccn34)n2)CC1` [Example 264, 4-{5-[2-({1-[(4-chlorophenyl)sulfonyl]piperidin-4-yl}amino)pyrimidin-4-yl]imidazo[2,1-b][1,3]thiazol-6-yl}phenol], the inhibition at 10 µM is 5%. Consider `O=S(=O)(c1ccc(Cl)cc1)N1CCC(Nc2nccc(-c3c(-c4ccc(F)c(F)c4)nc4sccn34)n2)CC1` [Example 265, N-{1-[(4-chlorophenyl)sulfonyl]piperidin-4-yl}-4-[6-(3,4-difluorophenyl)imidazo[2,1-b][1,3]thiazol-5-yl]pyrimidin-2-amine], for which the IC50 was over 3000 nM. Still for that read-out and setting: to `O=S(=O)(c1ccc(F)cc1)N1CCC(Nc2nccc(-c3c(-c4cccc(O)c4)nc4sccn34)n2)CC1` [Example 266, 3-{5-[2-({1-[(4-fluorophenyl)sulfonyl]piperidin-4-yl}amino)pyrimidin-4-yl]imidazo[2,1-b][1,3]thiazol-6-yl}phenol] belongs 29 nM. On the same count and under the same terms, under `N#Cc1cccc(-c2nc3sccn3c2-c2ccnc(NC3CCN(S(=O)(=O)c4ccc(Cl)cc4)CC3)n2)c1` [Example 269, 3-{5-[2-({1-[(4-chlorophenyl)sulfonyl]piperidin-4-yl)amino)pyrimidin-4-yl]imidazo[2,1-b][1,3]thiazol-6-yl}benzonitrile] stands 1630 nM; under `COc1cccc(-c2nc3sccn3c2-c2ccnc(NC3CCN(S(=O)(=O)c4ccc(CCC(=O)O)cc4)CC3)n2)c1` [Example 270, 3-(4-{[4-({4-[6-(3-methoxyphenyl)imidazo[2,1-b][1,3]thiazol-5-yl]pyrimidin-2-yl}amino)piperidin-1-yl]sulfonyl}phenyl)propanoic acid], 316 nM.

Take `N#Cc1cccc(-c2nc3sccn3c2-c2ccnc(NC3CCNCC3)n2)c1` [Example 271, 3-{5-[2-(piperidin-4-ylamino)pyrimidin-4-yl]imidazo[2,1-b][1,3]thiazol-6-yl}benzonitrile]: the inhibition at 10 µM turned out to be 58%. Take `COC(=O)CCc1ccc(S(=O)(=O)N2CCC(Nc3nccc(-c4c(-c5cccc(O)c5)nc5sccn45)n3)CC2)cc1` [Example 272, methyl 3-(4-{[4-({4-[6-(3-hydroxyphenyl)imidazo[2,1-b][1,3]thiazol-5-yl]pyrimidin-2-yl}amino)piperidin-1-yl]sulfonyl}phenyl)propanoate]: the IC50 stood at 10 nM. `O=C(O)CCc1ccc(S(=O)(=O)N2CCC(Nc3nccc(-c4c(-c5cccc(O)c5)nc5sccn45)n3)CC2)cc1` [Example 273, 3-(4-{[4-({4-[6-(3-hydroxyphenyl)imidazo[2,1-b][1,3]thiazol-5-yl]pyrimidin-2-yl}amino)piperidin-1-yl]sulfonyl}phenyl)propanoic acid]: the IC50 is 10 nM. Same read-out and setting: under `O=[N+]([O-])c1ccccc1-c1nc2sccn2c1-c1ccnc(NC2CCN(S(=O)(=O)c3ccc(Cl)cc3)CC2)n1` [Example 274, N-{1-((4-chlorophenyl)sulfonyl]piperidin-4-yl}-4-[6-(2-nitrophenyl)imidazo[2,1-b][1,3]thiazol-5-yl]pyrimidin-2-amine] stands 722 nM. As to `Fc1ccc(-c2nc3sccn3c2-c2ccnc(N[C@H]3CCNC3)n2)cc1` [Example 275, 4-[6-(4-fluorophenyl)imidazo[2,1-b][1,3]thiazol-5-yl]-N-[(3S)-pyrrolidin-3-yl]pyrimidin-2-amine], the inhibition at 10 µM turned out to be 30%. The same measure, in the same setting: to `O=S(=O)(c1ccc(Cl)cc1)N1CC[C@H](Nc2nccc(-c3c(-c4ccc(F)cc4)nc4sccn34)n2)C1` [Example 276, N-{(3S)-1-[(4-chlorophenyl)sulfonyl]pyrrolidin-3-yl}-4-[6-(4-fluorophenyl)imidazo[2,1-b][1,3]thiazol-5-yl]pyrimidin-2-amine] belongs 95%. In the case of `Fc1ccc(-c2nc3sccn3c2-c2ccnc(N[C@@H]3CCNC3)n2)cc1` [Example 277, 4-[6-(4-fluorophenyl)imidazo[2,1-b][1,3]thiazol-5-yl]-N-[(3R)-pyrrolidin-3-yl]pyrimidin-2-amine], the IC50 is 44 nM. On to `O=S(=O)(c1ccc(Cl)cc1)N1CC[C@@H](Nc2nccc(-c3c(-c4ccc(F)cc4)nc4sccn34)n2)C1` [Example 278, N-{(3R)-1-[(4-chlorophenyl)sulfonyl]pyrro-lidin-3-yl}-4-[6-(4-fluorophenyl)imidazo[2,1-b][1,3]thiazol-5-yl]pyrimidin-2-amine], for which the inhibition at 10 µM worked out at 10%.

Turning to `COc1cccc(-c2nc3sccn3c2-c2ccnc(N[C@@H]3CCNC3)n2)c1` [Example 279, 4-[6-(3-methoxyphenyl)imidazo[2,1-b][1,3]thiazol-5-yl]-N-[(3R)-pyrrolidin-3-yl]pyrimidin-2-amine], the inhibition at 10 µM was 36%.

Turning to `COc1cccc(-c2nc3sccn3c2-c2ccnc(N[C@@H]3CCN(S(=O)(=O)c4ccc(Cl)cc4)C3)n2)c1` [Example 280, N-{(3R)-1-[(4-chlorophenyl)sulfonyl]pyrro-lidin-3-yl}-4-[6-(3-methoxyphenyl)imidazo[2,1-b][1,3]thiazol-5-yl]pyrimidin-2-amine], the inhibition at 10 µM worked out at 37%.

On to `COc1cccc(-c2nc3sccn3c2-c2ccnc(N[C@@H]3CCN(S(=O)(=O)c4ccc(C(=O)O)cc4)C3)n2)c1` [Example 281, 4-{[(3R)-3-({4-[6-(3-methoxyphenyl)imidazo[2,1-b][1,3]thiazol-5-yl]pyrimidin-2-yl}amino)pyrrolidin-1-yl]sulfonyl)benzoic acid], for which the IC50 was over 3000 nM. On the same count and under the same terms, under `O=C(O)c1ccc(S(=O)(=O)N2CC[C@@H](Nc3nccc(-c4c(-c5cccc(O)c5)nc5sccn45)n3)C2)cc1` [Example 282, 4-{[(3R)-3-({4-[6-(3-hydroxyphenyl)imidazo[2,1-b][1,3]thiazol-5-yl]pyrimidin-2-yl}amino)pyrrolidin-1-yl]sulfonyl}benzoic acid] stands 522 nM.
